Target: T1, Full-length, GST-tagged, human CaMKIIδ (Homo sapiens, UniProt Q13557)
T1 construct: Full-Length, Glutathione-S-Transferase(GST)-Tagged, Human CaMKIIδ was purchased from Carna Biosciences; purchased Carna Biosciences 02-111
Experiment: CaMKIIδ binding assay (TR-FRET with BODIPY-labeled probe ligand)
Procedure, shortened: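 TR-FRET probe-displacement binding: 0.5 nM GST-CaMKIIδ with 10 μg/mL calmodulin, 1 mM CaCl2, 0.21 nM Tb-anti-GST Ab and 300 nM BODIPY probe in HEPES pH 7.6 buffer. Eight-point 4-fold dilutions, 1 hr at room temperature. IC50 from logistic fit; 100% inhibition defined by 3 μM parent compound.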

[1] = Table 2, activity class for CaMKIIδ
[2] = CaMKIIδ binding assay, results of Table 2
[3] = CaMKIIδ binding assay, activity class per Table 2
[4] = Table 2, CaMKIIδ binding assay, activity given as class A/B/C

T1 sequence (Q13557 1-478 isoform Q13557-12): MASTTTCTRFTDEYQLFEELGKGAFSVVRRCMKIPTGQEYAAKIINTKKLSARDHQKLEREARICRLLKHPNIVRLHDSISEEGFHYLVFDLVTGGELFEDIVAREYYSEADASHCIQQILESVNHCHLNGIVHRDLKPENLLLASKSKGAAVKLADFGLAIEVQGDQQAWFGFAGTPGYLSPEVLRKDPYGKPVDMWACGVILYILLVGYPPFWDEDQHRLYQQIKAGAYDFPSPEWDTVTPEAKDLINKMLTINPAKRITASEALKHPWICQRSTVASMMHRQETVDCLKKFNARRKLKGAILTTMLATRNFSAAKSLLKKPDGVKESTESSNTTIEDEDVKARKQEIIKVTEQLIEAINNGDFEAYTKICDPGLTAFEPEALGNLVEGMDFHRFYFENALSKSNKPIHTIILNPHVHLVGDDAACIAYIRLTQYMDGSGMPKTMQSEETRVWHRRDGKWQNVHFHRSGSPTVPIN

Q: With `C[C@@H](Cn1cnnn1)Oc1cc(-c2cnc(Nc3cc(-c4ccccc4)nn3C)nc2)ccc1Cl` [Example 719, (S)-5-(3-((1-(1H-tetrazol-1-yl)propan-2-yl)oxy)-4-chlorophenyl)-N-(1-methyl-3-phenyl-1H-pyrazol-5-yl)pyrimidin-2-amine] as the compound, how does the IC50 [1] read?
A: 10 to 100 nM

Q: With `COc1ccc(C(=O)N2CCCN(C)CC2)cc1Nc1ncc(-c2ccc(Cl)c(O[C@@H](C)Cn3cnnn3)c2)cn1` [Example 544, (S)-(3-((5-(3-((1-(1H-tetrazol-1-yl)propan-2-yl)oxy)-4-chlorophenyl)pyrimidin-2-yl)amino)-4-methoxyphenyl) (4-methyl-1,4-diazepan-1-yl)methanone] as the compound, how does the IC50 [2] read?
A: < 10 nM

Q: How did the IC50 [2] turn out when `COc1ccc(N2CCCC(N3CCOCC3)C2)cc1Nc1ncc(-c2ccc(Cl)c(O[C@@H](C)Cn3cnnn3)c2)cn1` (stereo partly drawn) [Example 455, 5-(3-(((S)-1-(1H-tetrazol-1-yl)propan-2-yl)oxy)-4-chlorophenyl)-N-(2-methoxy-5-(3-morpholinopiperidin-1-yl)phenyl)pyrimidin-2-amine] was run?
A: 10 to 100 nM

Q: With `Cc1cnc(N2CCC(N3CCOCC3)CC2)cc1Nc1ncc(-c2ccc(Cl)c(O[C@@H](C)Cn3cnnn3)c2)cn1` [Example 478, (S)-5-(3-((1-(1H-tetrazol-1-yl)propan-2-yl)oxy)-4-chlorophenyl)-N-(5-methyl-2-(4-morpholinopiperidin-1-yl)pyridin-4-yl)pyrimidin-2-amine] as the compound, how does the IC50 [2] read?
A: 10 to 100 nM

Q: Which IC50 [1] does the source give for `C[C@@H](Cn1cnnn1)Oc1cc(-c2cnc(Nc3cn(CC4CCCN4C4COC4)nc3C(F)(F)F)nc2)ccc1Cl` (stereo partly drawn) [Example 609, 5-(3-(((S)-1-(1H-tetrazol-1-yl)propan-2-yl)oxy)-4-chlorophenyl)-N-(1-((1-(oxetan-3-yl)pyrrolidin-2-yl)methyl)-3-(trifluoromethyl)-1H-pyrazol-4-yl)pyrimidin-2-amine] here?
A: 10 to 100 nM

Q: For `C[C@@H](Cn1cnnn1)Oc1cc(-c2cnc(Nc3cn(C4CC5(C4)CN(C(=O)OC(C)(C)C)C5)nc3C(F)(F)F)nc2)ccc1Cl` [Example 919, tert-butyl (S)-6-(4-((5-(3-((1-(1H-tetrazol-1-yl)propan-2-yl)oxy)-4-chlorophenyl)pyrimidin-2-yl)amino)-3-(trifluoromethyl)-1H-pyrazol-1-yl)-2-azaspiro[3.3]heptane-2-carboxylate], which IC50 [3] is on record?
A: ≥ 100 nM

Q: Which IC50 [3] does the source give for `CC(Cn1cnnn1)Oc1cc(-c2cnc(Nc3cn(CC4(O)CCC(N5CCOCC5)CC4)nc3OCC(F)(F)F)nc2)ccc1Cl` [Example 911, trans-1-((4-((5-(3-(((S)-1-(1H-tetrazol-1-yl)propan-2-yl)oxy)-4-chlorophenyl)pyrimidin-2-yl)amino)-3-(2,2,2-trifluoroethoxy)-1H-pyrazol-1-yl)methyl)-4-morpholinocyclohexan-1-ol] here?
A: < 10 nM

Q: `C[C@@H](Cn1cnnn1)Oc1cc(-c2cnc(Nc3cn(C4CC5(C4)CN(C4CCOCC4)C5)nc3OCC(F)(F)F)nc2)ccc1C#N` [Example 938, (S)-2-((1-(1H-tetrazol-1-yl)propan-2-yl)oxy)-4-(2-((1-(2-(tetrahydro-2H-pyran-4-yl)-2-azaspiro[3.3]heptan-6-yl)-3-(2,2,2-trifluoroethoxy)-1H-pyrazol-4-yl)amino)pyrimidin-5-yl)benzonitrile] was tested. Which IC50 [3] did it give?
A: < 10 nM

Q: `COc1cnc(C2CCC(F)(F)CC2)cc1Nc1ncc(-c2ccc(Cl)c(O[C@@H](C)Cn3cnnn3)c2)cn1` [Example 508, (S)-5-(3-((1-(1H-tetrazol-1-yl)propan-2-yl)oxy)-4-chlorophenyl)-N-(2-(4,4-difluorocyclohexyl)-5-methoxypyridin-4-yl)pyrimidin-2-amine] was tested. Which IC50 [2] did it give?
A: ≥ 100 nM

Q: `COc1nc(N2CCN(C3CCOCC3)CC2)ccc1Nc1ncc(-c2ccc(Cl)c(O[C@@H](C)Cn3cnnn3)c2)cn1` [Example 616, (S)-5-(3-((1-(1H-tetrazol-1-yl)propan-2-yl)oxy)-4-chlorophenyl)-N-(2-methoxy-6-(4-(tetrahydro-2H-pyran-4-yl)piperazin-1-yl)pyridin-3-yl)pyrimidin-2-amine] was tested. Which IC50 [1] did it give?
A: < 10 nM

Q: How did the IC50 [4] turn out when `C[C@@H](Cn1cnnn1)Oc1cc(-c2cnc(Nc3cn(CC(C)(C)O)nc3C(F)(F)F)nc2)ccc1Cl` [Example 847, (S)-1-(4-((5-(3-((1-(1H-tetrazol-1-yl)propan-2-yl)oxy)-4-chlorophenyl)pyrimidin-2-yl)amino)-3-(trifluoromethyl)-1H-pyrazol-1-yl)-2-methylpropan-2-ol] was run?
A: < 10 nM

Q: Which IC50 [1] does the source give for `C[C@@H](Cn1cnnn1)Oc1cc(-c2cnc(Nc3cn(CC4CN(Cc5ccccc5)CCO4)nc3C(F)(F)F)nc2)ccc1Cl` (stereo partly drawn) [Example 641, 5-(3-(((S)-1-(1H-tetrazol-1-yl)propan-2-yl)oxy)-4-chlorophenyl)-N-(1-((4-benzylmorpholin-2-yl)methyl)-3-(trifluoromethyl)-1H-pyrazol-4-yl)pyrimidin-2-amine] here?
A: ≥ 100 nM

Q: For `C[C@@H](Cn1cnnn1)Oc1cc(-c2cnc(Nc3cn(C4CCN(C(=O)OC(C)(C)C)CC4)nc3OCC(F)(F)F)nc2)ccc1Cl` [Example 675, tert-butyl (S)-4-(4-((5-(3-((1-(1H-tetrazol-1-yl)propan-2-yl)oxy)-4-chlorophenyl)pyrimidin-2-yl)amino)-3-(2,2,2-trifluoroethoxy)-1H-pyrazol-1-yl)piperidine-1-carboxylate], which IC50 [1] is on record?
A: 10 to 100 nM

Q: With `C[C@@H](Cn1cnnn1)Oc1cc(-c2cnc(Nc3cn(C4CCCCO4)nc3OCC(F)(F)F)nc2)ccc1C#N` (stereo partly drawn) [Example 763, 2-(((S)-1-(1H-tetrazol-1-yl)propan-2-yl)oxy)-4-(2-((1-(tetrahydro-2H-pyran-2-yl)-3-(2,2,2-trifluoroethoxy)-1H-pyrazol-4-yl)amino)pyrimidin-5-yl)benzonitrile] as the compound, how does the IC50 [4] read?
A: < 10 nM

Q: With `C[C@@H](Cn1cnnn1)Oc1cc(-c2cnc(Nc3cn([C@H]4C[C@@H](N5CCOCC5)C4)nc3OCC(F)F)nc2)ccc1Cl` [Example 849, (S)-5-(3-((1-(1H-tetrazol-1-yl)propan-2-yl)oxy)-4-chlorophenyl)-N-(3-(2,2-difluoroethoxy)-1-(cis-3-morpholinocyclobutyl)-1H-pyrazol-4-yl)pyrimidin-2-amine] as the compound, how does the IC50 [4] read?
A: < 10 nM

Q: `C[C@@H](Cn1cnnn1)Oc1cc(-c2cnc(Nc3cn(CCNC(=O)c4ccccc4)nc3C(F)(F)F)nc2)ccc1Cl` [Example 630, (S)-N-(2-(4-((5-(3-((1-(1H-tetrazol-1-yl)propan-2-yl)oxy)-4-chlorophenyl)pyrimidin-2-yl)amino)-3-(trifluoromethyl)-1H-pyrazol-1-yl)ethyl)benzamide] was tested. Which IC50 [1] did it give?
A: ≥ 100 nM

Q: How did the IC50 [2] turn out when `C[C@@H](Cn1cnnn1)Oc1cc(-c2cnc(Nc3cc4c(cc3Cl)CCNCC4)nc2)ccc1Cl` [Example 507, (S)-N-(5-(3-((1-(1H-tetrazol-1-yl)propan-2-yl)oxy)-4-chlorophenyl)pyrimidin-2-yl)-8-chloro-2,3,4,5-tetrahydro-1H-benzo[d]azepin-7-amine] was run?
A: < 10 nM

Q: How did the IC50 [2] turn out when `COc1cc2c(cc1Nc1ncc(-c3ccc(Cl)c(O[C@@H](C)Cn4cnnn4)c3)cn1)CN(C(=O)CO)CC2` [Example 522, (S)-1-(7-((5-(3-((1-(1H-tetrazol-1-yl)propan-2-yl)oxy)-4-chlorophenyl)pyrimidin-2-yl)amino)-6-methoxy-3,4-dihydroisoquinolin-2(1H)-yl)-2-hydroxyethan-1-one] was run?
A: 10 to 100 nM

Q: With `C[C@@H](Cn1cnnn1)Oc1cc(-c2cnc(Nc3cn(C4CCN(CCO)CC4)nc3C(F)(F)F)nc2)ccc1Cl` [Example 535, (S)-2-(4-(4-((5-(3-((1-(1H-tetrazol-1-yl)propan-2-yl)oxy)-4-chlorophenyl)pyrimidin-2-yl)amino)-3-(trifluoromethyl)-1H-pyrazol-1-yl)piperidin-1-yl)ethan-1-ol] as the compound, how does the IC50 [2] read?
A: < 10 nM

Q: How did the IC50 [4] turn out when `C[C@@H](Cn1cccn1)Oc1cc(-c2cnc(Nc3cn([C@H]4CC[C@H](N5CCOCC5)CC4)nc3C(F)(F)F)nc2)ccc1C#N` [Example 786, 2-(((S)-1-(1H-pyrazol-1-yl)propan-2-yl)oxy)-4-(2-((1-(trans-4-morpholinocyclohexyl)-3-(trifluoromethyl)-1H-pyrazol-4-yl)amino)pyrimidin-5-yl)benzonitrile] was run?
A: 10 to 100 nM

Q: How did the IC50 [3] turn out when `C[C@@H](Cn1cnnn1)Oc1cc(-c2cnc(Nc3cn(C4CC5(C4)CN(CCC(F)(F)F)C5)nc3OCC(F)(F)F)nc2)ccc1Cl` [Example 998, (S)-5-(3-((1-(1H-tetrazol-1-yl)propan-2-yl)oxy)-4-chlorophenyl)-N-(3-(2,2,2-trifluoroethoxy)-1-(2-(3,3,3-trifluoropropyl)-2-azaspiro[3.3]heptan-6-yl)-1H-pyrazol-4-yl)pyrimidin-2-amine] was run?
A: < 10 nM

Q: Which IC50 [2] does the source give for `COc1ccc(C(=O)O)cc1Nc1ncc(-c2ccc(Cl)c(O[C@@H](C)Cn3cnnn3)c2)cn1` [Example 540, (S)-3-((5-(3-((1-(1H-tetrazol-1-yl)propan-2-yl)oxy)-4-chlorophenyl)pyrimidin-2-yl)amino)-4-methoxybenzoic acid] here?
A: ≥ 100 nM

Q: With `COc1nn(C2CCN(C3COC3)CC2)cc1Nc1ncc(-c2ccc(Cl)c(O[C@@H](C)Cn3cnnn3)c2)cn1` [Example 661, (S)-5-(3-((1-(1H-tetrazol-1-yl)propan-2-yl)oxy)-4-chlorophenyl)-N-(3-methoxy-1-(1-(oxetan-3-yl)piperidin-4-yl)-1H-pyrazol-4-yl)pyrimidin-2-amine] as the compound, how does the IC50 [1] read?
A: < 10 nM

Q: Which IC50 [2] does the source give for `C[C@@H](Cn1cnnn1)Oc1cc(-c2cnc(Nc3cn(C4CCNCC4)nc3C(F)(F)F)nc2)ccc1Cl` [Example 483, (S)-5-(3-((1-(1H-tetrazol-1-yl)propan-2-yl)oxy)-4-chlorophenyl)-N-(1-(piperidin-4-yl)-3-(trifluoromethyl)-1H-pyrazol-4-yl)pyrimidin-2-amine] here?
A: < 10 nM

Q: For `CCC(=O)c1nn(C2CC3(C2)CN(C2CCOCC2)C3)cc1Nc1ncc(-c2ccc(Cl)c(O[C@@H](C)Cn3cnnn3)c2)cn1` [Example 958, (S)-1-(4-((5-(3-((1-(1H-tetrazol-1-yl)propan-2-yl)oxy)-4-chlorophenyl)pyrimidin-2-yl)amino)-1-(2-(tetrahydro-2H-pyran-4-yl)-2-azaspiro[3.3]heptan-6-yl)-1H-pyrazol-3-yl)propan-1-one], which IC50 [3] is on record?
A: < 10 nM

Source: US10543212B2, “Substituted amines for treating cardiac diseases” (Cardurion Pharmaceuticals, LLC, priority 2017, dated 2020)
